Patent publication US5733931A, “Cyclohexanediurea derivative and process for its production” (Nissin Food Products Co., Ltd., priority 1993, dated 1998)

Legend:
serum cholesterol [1] = assay: Serum cholesterol lowering effect in rat having high cholesterol [3-1]; type: in vivo, SD-type (Sprague-Dawley) male rat; conditions: oral, once a day for 5 days, dissolved in saline, Table 12
Experimental: 3) Cholesterol Lowering Effect
[3-1] Using a rat having high cholesterol, compounds of the invention were tested for their serum cholesterol lowering effects by the following method. A 6-week-old SD-type (Sprague-Dawley) male rat was fed with food containing 1% of cholesterol, 0.5% of cholic acid and 5% of olive oil for 2 days and then orally administered the food and a compound of the invention as dissolved in saline once a day for 5 days starting on day 3. Four hours after the final administration, a blood sample was taken. The total cholesterol in the serum of the test group was measured and compared with that of the control group.

[2] = molecular target: ACAT (Acyl-CoA: cholesterol acyltransferase) enzyme of rabbit liver microsome; assay: Inhibitory effect on ACAT enzyme (No.1), rabbit liver microsome; type: biochemical; conditions: Table 9
Experimental: 1) Inhibitory effect on ACAT (Acyl-CoA: cholesterol acyltransferase) enzyme (No.1)
Compounds of the invention were tested for their inhibitory effects on ACAT enzyme of rabbit liver microsome by the method of J. G. Heider (J. of Lipid Res., vol. 24, 1127-1134, 1983). More specifically, the test was done by measuring the amount of labelled cholesterol oleate ester produced from oleic acid CoA (coenzyme A) labelled by radiation.

[3] = system: ACAT enzyme of human CaCo2 cells; assay: ACAT enzyme activity of human CaCo2 cells (microsome fractions); type: biochemical; conditions: Table 11, read-out: IC50, inhibitory effect on ACAT enzyme activity, human CaCo2
Experimental: (§1) ACAT enzyme activities of the microsomes were determined by the method of J. G. Heider (J. Lipid Res., 24, 1127-1134, 1983). A test sample dissolved in 1% dimethylsulfoxide was added to a microsome fraction (100 μg), a phosphoric acid buffer (0.154M) having pH 7.4, 1-^14 C-oleoyl CoA (36 μM), dithiosleitol (2 mM) and bovine blood serum albumin (36 μg/ml). The reaction mixture adjusted to a final capacity of 0.5 ml was incubated at 37° C. for 60 minutes. A mixture (6 ml) of chloroform and methanol (2:1) was added and the reaction was stopped. Cholesterol oleate was extracted with chloroform and separated by thin-layer chromatography. ACAT enzyme activities of the microsome fractions were determined by radiation measurement.
(§2) [2-2] ACAT enzyme activities of human HepG2 and CaCo2 cells
(§3) Human HepG2 and CaCo2 cells purchased from ATCC (AMERICAN TYPE CULTURE COLLECTION) were used in this test.
(§4) Using RPMI 1640 medium for HepG2 and DMEM medium for CaCo2, HepG2 and CaCo2 cells were cultured with 40 ml of each medium containing 10% bovine blood serum, 50 I.U. of penicillin and 50 μg/ml of streptomycin in a 5% CO2 incubator at 37° C. The cells were then monolayer-culturedwith 80 ml of each medium containing […] of cholesterol and 5 μg/ml of 25-0H cholesterol in a 175 cm flask for 5 hours. The homogenizes of these cells were subjected to centrifugation at 105,000 g to collect microsome fractions. ACAT enzyme activities of the microsome fractions were determined by the above-mentioned method.

[4] = molecular target: T1, ACAT enzyme of rabbit small intestine mucosa microsomes (Oryctolagus cuniculus, UniProt G1SFD9); assay: Inhibitory effect on ACAT enzyme (No.2), rabbit small intestine mucosa microsomes; type: biochemical; conditions: pH 7.4, 37° C., 60 minutes, Table 10
T1 construct: Microsomes of the liver and small intestine mucosa were prepared; from tissue; host or cells: small intestine mucosa microsomes of a cholesterol-fed white male rabbit
T1 sequence (G1SFD9 1-524): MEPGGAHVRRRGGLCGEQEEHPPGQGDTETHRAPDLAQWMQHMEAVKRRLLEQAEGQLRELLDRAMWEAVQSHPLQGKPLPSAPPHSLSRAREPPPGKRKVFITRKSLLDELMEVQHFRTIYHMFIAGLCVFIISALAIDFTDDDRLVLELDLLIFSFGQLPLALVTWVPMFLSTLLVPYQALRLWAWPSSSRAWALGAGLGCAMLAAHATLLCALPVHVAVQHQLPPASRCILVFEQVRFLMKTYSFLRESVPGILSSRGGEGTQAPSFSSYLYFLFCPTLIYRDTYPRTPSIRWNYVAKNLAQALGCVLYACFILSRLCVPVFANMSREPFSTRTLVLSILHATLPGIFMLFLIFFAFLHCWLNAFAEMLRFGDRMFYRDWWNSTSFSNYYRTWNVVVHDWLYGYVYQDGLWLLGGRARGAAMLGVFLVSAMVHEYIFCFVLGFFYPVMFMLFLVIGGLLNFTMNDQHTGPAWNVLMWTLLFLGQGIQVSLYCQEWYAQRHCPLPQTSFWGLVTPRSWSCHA
Experimental: (§5) 2) Inhibitory effect on ACAT (Acyl-CoA: cholesterol acyltransferase) enzyme (No.2)
(§6) [2-1] ACAT enzyme activities of rabbit liver and small intestine mucosa microsomes
(§7) A white male rabbit was fed with a […] cholesterol-containing food for four weeks and bleeding-slaughtered to extract its liver and small intestine. Microsomes of the liver and small intestine mucosa were prepared by the method of C. Marco et al. (Biochim. Biophys. Acta, 617, 458-471, 1980).
as §1

[5] = molecular target: ACAT enzyme of rabbit liver microsomes; assay: Inhibitory effect on ACAT enzyme (No.2), rabbit liver microsomes; type: biochemical; conditions: pH 7.4, 37° C., 60 minutes, Table 10
Experimental: as §5, §6, §7, §1

[6] = system: ACAT enzyme of human HepG2 cells; assay: ACAT enzyme activity of human HepG2 cells (microsome fractions); type: biochemical; conditions: Table 11, read-out: IC50, inhibitory effect on ACAT enzyme activity, human HepG2
Experimental: as §1, §2, §3, §4

serum cholesterol [7] = assay: Serum cholesterol lowering effect in rat having high cholesterol [3-2]; type: in vivo, SD-type (Sprague-Dawley) male rat; conditions: oral, once a day for the last 5 days, Tween 80 and saline suspension, Table 13
Experimental: [3-2] Using a rat having high cholesterol, compounds of the invention were tested for their serum cholesterol lowering effects by the following method. A 6-week-old SD-type (Sprague-Dawley) male rat was fed with food containing 1% of cholesterol, 0.5% of cholic acid and 5% of olive oil for 7 days. For the last 5 days, a test sample suspended in some drops of Tween 80 and saline was orally administered once a day. Four hours after the final administration, a blood sample was taken from celiac aorta of the rat under etherization. The total cholesterol in the serum of the test group was measured by the oxygen method and compared with that of the control group.

## CN(C)c1ccc(NC(=O)N(CC(C)(C)C)C[C@H]2CC[C@H](CN(CC(C)(C)C)C(=O)Nc3ccc(N(C)C)cc3)CC2)cc1 [Example 7, Trans-1,4-bis[[3-(4-dimethylaminophenyl)-1-neopentylureido]methyl]cyclohexane]
Serum cholesterol [1]; 3 mg/kg
  Cholesterol lowering effect, % (serum total cholesterol vs control group): 105%
Serum cholesterol [1]; 10 mg/kg
  Cholesterol lowering effect, % (serum total cholesterol vs control group): 103%
[2]
  IC50: 100 nM

## O=C(Nc1ccc(N2CCCC2)cc1)N(C[C@H]1CC[C@H](CN(C(=O)Nc2ccc(N3CCCC3)cc2)C2CCCCC2)CC1)C1CCCCC1 [Example 14-1, Trans-1,4-bis[[1-cyclohexyl-3-(4-pyrrolidinophenyl)ureido]methyl]cyclohexan]
[3]
  IC50: 0.8 nM
[4]
  IC50: 140 nM
[5]
  IC50: 180 nM
[6]
  IC50: 0.4 nM
Serum cholesterol [7]; 1 mg/kg
  Cholesterol lowering effect, % (serum total cholesterol vs control group): 80.9%
Serum cholesterol [7]; 3 mg/kg
  Cholesterol lowering effect, % (serum total cholesterol vs control group): 96.2%

## CN(C)c1ccc(NC(=O)N(C[C@H]2CC[C@H](CN(C(=O)Nc3ccc(N(C)C)cc3)C3CCCCCC3)CC2)C2CCCCCC2)cc1 [Example 15, Trans-1,4-bis[[1-cycloheptyl-3-(4-dimethylaminophenyl)ureido]methyl]cyclohexane]
Serum cholesterol [1]; 3 mg/kg
  Cholesterol lowering effect, % (serum total cholesterol vs control group): 93%
Serum cholesterol [1]; 10 mg/kg
  Cholesterol lowering effect, % (serum total cholesterol vs control group): 99%
[2]
  IC50: 38 nM

## CN(C)c1ccc(NC(=O)N(C[C@@H]2CCC[C@H](CN(C(=O)Nc3ccc(N(C)C)cc3)C3CCCCCC3)C2)C2CCCCCC2)cc1 [Example 83, Cis-1,3-bis[[1-cycloheptyl-3-(4-dimethylaminophenyl)ureido]methyl]cyclohexane]
Serum cholesterol [1]; 3 mg/kg
  Cholesterol lowering effect, % (serum total cholesterol vs control group): 43%
Serum cholesterol [1]; 10 mg/kg
  Cholesterol lowering effect, % (serum total cholesterol vs control group): 91%
[2]
  IC50: 46 nM

## O=C(Nc1ccc(N2CCOCC2)cc1)N(C[C@H]1CC[C@H](CN(C(=O)Nc2ccc(N3CCOCC3)cc2)C2CCCCC2)CC1)C1CCCCC1 [Example 14-4, Trans-1,4-bis[[1-cyclohexyl-3-(4-morpholinophenyl)ureido]methyl]cyclohexane]
Serum cholesterol [7]; 1 mg/kg
  Cholesterol lowering effect, % (serum total cholesterol vs control group): 79.9%
Serum cholesterol [7]; 3 mg/kg
  Cholesterol lowering effect, % (serum total cholesterol vs control group): 98.8%

## CN(C)c1ccc(NC(=O)N(C[C@H]2CC[C@@H](CN(C(=O)Nc3ccc(N(C)C)cc3)C3CCCCC3)CC2)C2CCCCC2)cc1 [Example 42, Cis-1,4-bis[[1-cyclohexyl-3-(4-dimethylaminophenyl)ureido]methyl]cyclohexane]
Serum cholesterol [1]; 3 mg/kg
  Cholesterol lowering effect, % (serum total cholesterol vs control group): 110%
Serum cholesterol [1]; 10 mg/kg
  Cholesterol lowering effect, % (serum total cholesterol vs control group): 102%
[2]
  IC50: 60 nM

## O=C(Nc1ccc(N2CCCCC2)cc1)N(C[C@H]1CC[C@H](CN(C(=O)Nc2ccc(N3CCCCC3)cc2)C2CCCCC2)CC1)C1CCCCC1 [Example 13, Trans-1,4-bis[[1-cyclohexyl-3-(4-piperidinophenyl)ureido]methyl]cyclohexane]
[3]
  IC50: 1.1 nM
[4]
  IC50: 130 nM
[5]
  IC50: 35 nM
[6]
  IC50: 0.86 nM
Serum cholesterol [7]; 1 mg/kg
  Cholesterol lowering effect, % (serum total cholesterol vs control group): 76.8%
Serum cholesterol [7]; 3 mg/kg
  Cholesterol lowering effect, % (serum total cholesterol vs control group): 96.2%

## CN(C)c1ccc(NC(=O)N(C[C@H]2CC[C@@H](CN(C(=O)Nc3ccc(N(C)C)cc3)C3CCCCCC3)CC2)C2CCCCCC2)cc1 [Example 43, Cis-1,4-bis[[1-cycloheptyl-3-(4-dimethylaminophenyl)ureido]methyl]cyclohexane]
Serum cholesterol [1]; 3 mg/kg
  Cholesterol lowering effect, % (serum total cholesterol vs control group): 88%
Serum cholesterol [1]; 10 mg/kg
  Cholesterol lowering effect, % (serum total cholesterol vs control group): 107%
[2]
  IC50: 50 nM

## CN(C)c1ccc(NC(=O)N(C[C@H]2CC[C@H](CN(C(=O)Nc3ccc(N(C)C)cc3)C3CCCCCC3)CC2)C2CCCCCC2)cc1 [Example 22, Trans-1,4-bis[[1-cycloheptyl-3-(4-dimethyaminophenyl)ureido]methyl]cyclohexane]
[3]
  IC50: 0.22 nM
[4]
  IC50: 18 nM
[5]
  IC50: 83 nM
[6]
  IC50: 0.32 nM
Serum cholesterol [7]; 1 mg/kg
  Cholesterol lowering effect, % (serum total cholesterol vs control group): 77.6%
Serum cholesterol [7]; 3 mg/kg
  Cholesterol lowering effect, % (serum total cholesterol vs control group): 97.2%

## CN(C)c1ccc(NC(=O)N(Cc2cccc(CN(C(=O)Nc3ccc(N(C)C)cc3)C3CCCCCC3)c2)C2CCCCCC2)cc1 [YM-17E, reference compound]
[3]
  IC50: 14 nM
Serum cholesterol [1]; 3 mg/kg
  Cholesterol lowering effect, % (serum total cholesterol vs control group): 38%
Serum cholesterol [1]; 10 mg/kg
  Cholesterol lowering effect, % (serum total cholesterol vs control group): 91%
[5]
  IC50: 23 nM
[6]
  IC50: 9.6 nM
Serum cholesterol [7]; 3 mg/kg
  Cholesterol lowering effect, % (serum total cholesterol vs control group): 38.0%
[2]
  IC50: 23 nM

## CN(C)c1ccc(NC(=O)N(C[C@H]2CCC[C@H](CN(C(=O)Nc3ccc(N(C)C)cc3)C3CCCCCC3)C2)C2CCCCCC2)cc1 (relative stereo) [Example 61, Trans-1,3-bis[[1-cycloheptyl-3-(4-dimethylaminophenyl)ureido]methyl]cyclohexane]
Serum cholesterol [1]; 3 mg/kg
  Cholesterol lowering effect, % (serum total cholesterol vs control group): 48%
Serum cholesterol [1]; 10 mg/kg
  Cholesterol lowering effect, % (serum total cholesterol vs control group): 82%
[2]
  IC50: 36 nM

## CN(C)c1ccc(NC(=O)N(C[C@H]2CC[C@H](CN(C(=O)Nc3ccc(N(C)C)cc3)C3CCCCC3)CC2)C2CCCCC2)cc1 [Example 12, Trans-1,4-bis[[1-cyclohexyl-3-(4-dimethylaminophenyl)ureido]methyl]cyclohexane]
[3]
  IC50: 0.74 nM
[4]
  IC50: 24 nM
[5]
  IC50: 36 nM
[6]
  IC50: 1.1 nM
Serum cholesterol [7]; 1 mg/kg
  Cholesterol lowering effect, % (serum total cholesterol vs control group): 96.2%
Serum cholesterol [7]; 3 mg/kg
  Cholesterol lowering effect, % (serum total cholesterol vs control group): 92.6%

## O=C(Nc1ccc(N2CCCCCC2)cc1)N(C[C@H]1CC[C@H](CN(C(=O)Nc2ccc(N3CCCCCC3)cc2)C2CCCCC2)CC1)C1CCCCC1 [Example 14-2, Trans-1,4-bis[[1-cyclohexyl-3-(4-homopiperidinophenyl)ureido]methyl]cyclohexane]
[3]
  IC50: 1.6 nM
[4]
  IC50: 52 nM
[5]
  IC50: 62 nM
[6]
  IC50: 0.27 nM

## CN(C)c1ccc(NC(=O)N(C[C@H]2CC[C@H](CN(C(=O)Nc3ccc(N(C)C)cc3)C3CCCC3)CC2)C2CCCC2)cc1 [Example 11, Trans-1,4-bis[[1-cyclopentyl-3-(4-dimethylaminophenyl)ureido]methyl]cyclohexane]
Serum cholesterol [1]; 3 mg/kg
  Cholesterol lowering effect, % (serum total cholesterol vs control group): 108%
Serum cholesterol [1]; 10 mg/kg
  Cholesterol lowering effect, % (serum total cholesterol vs control group): 101%
[2]
  IC50: 47 nM
